Reference: the supplement of paper PMC10307832

Assays:
Experiment in all cases: relative viability (nuclei count vs DMSO), 5 days (fraction); higher = more cells survive
Bemcentinib + AZD7762 = compound: Nc1nc(Nc2ccc3c(c2)CC[C@@H](N2CCCC2)CC3)nn1-c1cc2c(nn1)-c1ccccc1CCC2 [Bemcentinib] + NC(=O)Nc1cc(-c2cccc(F)c2)sc1C(=O)N[C@H]1CCCNC1 [AZD7762] (partner 0.2 µM)
Outline: (§1)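 The day after seeding in 1536-well plates, lung cancer cell lines were treated by pin tool with a single drug, or with a fixed anchor-drug dose together with five library-drug doses (not always all listed) in √10 steps. After 5 days, a combined fix-and-stain solution (final 0.05% Triton X-100, 1% formaldehyde, 1 ug/ml Hoechst) was added. Nuclei counted on 4× images gave relative viability as treated counts over vehicle counts, reported as the median of duplicate plates.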

Bemcentinib + Luminespib = compound: Nc1nc(Nc2ccc3c(c2)CC[C@@H](N2CCCC2)CC3)nn1-c1cc2c(nn1)-c1ccccc1CCC2 [Bemcentinib] + CCNC(=O)c1noc(-c2cc(C(C)C)c(O)cc2O)c1-c1ccc(CN2CCOCC2)cc1 [Luminespib] (partner 0.01 µM)
Outline: as §1

[1] = compound: CC1=CC=C(C=C1)C(=O)CN2C3=C(CCCC3)SC2=N [Pifithrin_alpha] + CS(=O)(=O)CCNCc1ccc(-c2ccc3ncnc(Nc4ccc(OCc5cccc(F)c5)c(Cl)c4)c3c2)o1 [Lapatinib] (partner 2 µM)
Outline: as §1

Bemcentinib + Olaparib = compound: Nc1nc(Nc2ccc3c(c2)CC[C@@H](N2CCCC2)CC3)nn1-c1cc2c(nn1)-c1ccccc1CCC2 [Bemcentinib] + O=C(c1cc(Cc2n[nH]c(=O)c3ccccc23)ccc1F)N1CCN(C(=O)C2CC2)CC1 [Olaparib] (partner 8 µM)
Outline: as §1

NCI-H650
relative viability (Bemcentinib + AZD7762; first compound 0.04 µM): 0.956 | relative viability (Bemcentinib + AZD7762; first compound 0.1265 µM): 0.964 | relative viability (Bemcentinib + AZD7762; first compound 0.4 µM): 1.15 | relative viability (Bemcentinib + AZD7762; first compound 1.265 µM): 0.886 | relative viability (Bemcentinib + AZD7762; first compound 4 µM): 1.17 | relative viability (Bemcentinib + Luminespib; first compound 0.04 µM): 0.8 | relative viability (Bemcentinib + Luminespib; first compound 0.1265 µM): 0.963 | relative viability (Bemcentinib + Luminespib; first compound 0.4 µM): 0.922 | relative viability (Bemcentinib + Luminespib; first compound 1.265 µM): 0.749 | relative viability (Bemcentinib + Luminespib; first compound 4 µM): 0.729 | relative viability ([1]; first compound 3.162 µM): 1.11 | relative viability ([1]; first compound 10 µM): 1.11 | relative viability ([1]; first compound 31.62 µM): 0.532 | relative viability ([1]; first compound 100 µM): 0.767 | relative viability (Bemcentinib + Olaparib; first compound 0.04 µM): 0.402 | relative viability (Bemcentinib + Olaparib; first compound 0.1265 µM): 0.424 | relative viability (Bemcentinib + Olaparib; first compound 0.4 µM): 0.42 | relative viability (Bemcentinib + Olaparib; first compound 1.265 µM): 0.424 | relative viability (Bemcentinib + Olaparib; first compound 4 µM): 0.36
